Results as given in patent US20110098177A1, “METHODS AND COMPOSITIONS OF PLANT MICRONUTRIENTS” (NOVUS INTERNATIONAL INC., priority 2006, published 2011).
Entries after “also recorded” stand apart in the source; their conditions may differ. Marks after values point to notes of the source that are not given here.

Columns and labels:
Type in all cases: in vivo
Florida-47 tomato = assay: Marketable yield per plant, greenhouse Fall 2007, tomato
Method: (§1) The following experiments were performed in a green house during the fall of 2007 at GCREC, Balm, University of Florida. Fifteen products, at 3 different application rates were examined. The plot size was 2-gallon pots. Crop set-up, procedures and variables were as follows.
(§2) Transplants of ‘Florida-47’ tomato and ‘Aristotle’ bell pepper plants in the 4-true leaf stage (about 6 inches tall) were planted in 2-gal pots on Aug. 27, 2007. Pots were filled with a commercially available planting medium. This medium was selected based on the mineral composition of the products to be applied without providing significant nutritional inputs to the crops. Irrigation was provided with drip lines delivering between 0.50 and 0.33 gal/day/pot for tomato and bell pepper, respectively, and the crops were irrigated three times per day. No foliar pesticides were necessary.
(§3) There were four control treatments corresponding to each target micronutrient in which non-Fe, non-Mn, non-Zn or non-Cu pots received all other essential nutrients under non-limiting conditions.
(§4) Treatments were applied at three rates (high, medium and low) obtained from the estimated concentration of Zn, Fe, Cu, and Mn foliarly-applied in tomato and bell pepper in field situations (Table 1). Products were weighed and dissolved in 200 ml of deionized water with a non-ionic surfactant and applied to the newly-matured open leaves of each crop at 3 and 7 weeks after transplant (WAT). Treated pots were isolated during application to avoid cross-contamination of other treatments.
(§5) Medium nutrient concentration was determined 1 week before treatment. The mineral composition of the medium was 26.8 ppm NH4—N, 49 ppm NO3—N, 15.8 ppm P, 91.2 ppm K, 82.3 ppm Ca, 58.2 ppm Mg, 23.9 ppm Na, 125.6 ppm S, 1.33 ppm Fe, 0.39 ppm Mn, 0.35 ppm Zn, 0.05 pp, Cu, 0.04 ppm B, 0 ppm Mo, 0.73 ppm Al, and 12.1 ppm Si. The pH of the medium was 5.36 and the electric conductivity was 1.38 mS/cm. The foliar tissue analysis was performed at 6 WAT and the concentration of N, P, K, Mg, Ca, S, B, Zn, Mn, Fe, and Cu was determined by a commercial laboratory. Plant toxicity was determined at 4 WAT by using a 0-10 visual scale, where 0=no visible damage and 10=total plant death. Marketable fruit weight was collected 2 times in bell pepper and 4 times in tomato following USDA standards.
(§6) Data were analyzed using a general linear model, and means were separated using orthogonal contrasts at the 5% significance level.

Aristotle bell pepper = assay: Marketable yield per plant, greenhouse Fall 2007, bell pepper
Method: as §1, §2, §3, §4, §5, §6

Tygress tomato plants [1] = assay: Foliar nutrient concentration at 6 WAT, open-field tomato (Examples 7-10); details: 6 WAT, open field
In short: (§7)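 Open-field 2008 trial, Balm FL; 'Tygress' tomato and 'Patriot' pepper transplants on drip-fed raised beds. Foliar micronutrient sprays at 3 and 5 WAT (BIOX-CM at 4 and 5), 60 gal/acre with surfactant. Youngest mature leaves sampled 6 WAT; RCBD, 5 replications, Fisher's LSD 5%.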

[2] = tested on: Patriot bell pepper plants; assay: Foliar nutrient concentration at 6 WAT, open-field bell pepper (Examples 7-10); details: 6 WAT, open field
In short: as §7

Tygress tomato plants [3] = assay: Marketable yield, open-field tomato (Examples 7-10); details: open field
In short: as §7

Tygress tomato plants [4] = assay: Nutrient concentration of tomato fruits at 10 WAT, open field (Examples 7-10); details: 10 WAT; open field; product rate as Table 17
In short: as §7

[5] = foliar application at 3 and 7 WAT, rates not separated

CSCCC(O)C(=O)[O-].CSCCC(O)C(=O)[O-].[Zn+2] (centres unmarked) [BIOX-Z, Zn-HMTBA]
Marketable yield per plant, Tomato (Florida-47 tomato; [5]): 2.9* lb/plant | Tomato yield compared with control (in words) (Florida-47 tomato; foliar applications, P<0.05): significantly increased | Marketable yield per plant, Pepper (Aristotle bell pepper; [5]): 2.9* lb/plant | Bell pepper yield compared with control (in words) (Aristotle bell pepper; foliar applications, P<0.05): significantly increased | Foliar Zn concentration of tomato plants, statement (Tygress tomato plants [1]): highest foliar concentration of Zn; also recorded: significantly higher foliar Zn content | Foliar B concentration of tomato plants (Tygress tomato plants [1]; product rate as Table 17): 59 ppm | Foliar Ca concentration of tomato plants (Tygress tomato plants [1]; product rate as Table 17): 2.2% | Foliar Cu concentration of tomato plants (Tygress tomato plants [1]; product rate as Table 17): 338 ppm | Foliar Fe concentration of tomato plants (Tygress tomato plants [1]; product rate as Table 17): 76 ppm | Foliar K concentration of tomato plants (Tygress tomato plants [1]; product rate as Table 17): 5.5% | Foliar Mg concentration of tomato plants (Tygress tomato plants [1]; product rate as Table 17): 0.78% | Foliar Mn concentration of tomato plants (Tygress tomato plants [1]; product rate as Table 17): 198 ppm | Foliar N concentration of tomato plants (Tygress tomato plants [1]; product rate as Table 17): 4.7% | Foliar P concentration of tomato plants (Tygress tomato plants [1]; product rate as Table 17): 0.21% | Foliar Zn concentration of tomato plants (Tygress tomato plants [1]; product rate as Table 17): 434 a ppm | Foliar Zn concentration of bell pepper plants compared to control, statement [2]: significantly higher foliar concentration of Zn | Foliar B concentration of bell pepper plants ([2]; product rate as Table 17): 62 ppm | Foliar Ca concentration of bell pepper plants ([2]; product rate as Table 17): 4.4% | Foliar Cu concentration of bell pepper plants ([2]; product rate as Table 17): 387 ppm | Foliar Fe concentration of bell pepper plants ([2]; product rate as Table 17): 121 ppm | Foliar K concentration of bell pepper plants ([2]; product rate as Table 17): 3.7% | Foliar Mg concentration of bell pepper plants ([2]; product rate as Table 17): 0.50% | Foliar Mn concentration of bell pepper plants ([2]; product rate as Table 17): 240 ppm | Foliar N concentration of bell pepper plants ([2]; product rate as Table 17): 4.2% | Foliar P concentration of bell pepper plants ([2]; product rate as Table 17): 0.25% | Foliar Zn concentration of bell pepper plants ([2]; product rate as Table 17): 220 a ppm | Tomato marketable yield compared to control, statement (Tygress tomato plants [3]): significantly higher than the control tomato harvest; also recorded: higher marketable yield compared to control | Marketable yield, Tomato (Tygress tomato plants [3]; lb/acre/season: BIOX-Z 1.3, Cu 6.7, M 23.0, Fe 3.2, INC 4.0, INZ 0.6, CM 10.0, GZ 1.0, GF 4.0, EDZ 1.4, EDM 23.0): 17.5 ton/acre | B concentration of tomato fruits (Tygress tomato plants [4]): 20 ppm | Ca concentration of tomato fruits (Tygress tomato plants [4]): 0.2% | Cu concentration of tomato fruits (Tygress tomato plants [4]): 21 ppm | Fe concentration of tomato fruits (Tygress tomato plants [4]): 82 ppm | K concentration of tomato fruits (Tygress tomato plants [4]): 8.0% | Mg concentration of tomato fruits (Tygress tomato plants [4]): 0.36% | Mn concentration of tomato fruits (Tygress tomato plants [4]): 38 ppm | N concentration of tomato fruits (Tygress tomato plants [4]): 4.3% | P concentration of tomato fruits (Tygress tomato plants [4]): 0.63% | Zn concentration of tomato fruits (Tygress tomato plants [4]): 308 ppm
